According to PubChem BioAssay AID1159562 (GlaxoSmithKline (GSK), 2015):
The source made the active and inactive calls. The rule behind the calls is not given here.

These compounds were tested on Trypanosoma brucei growth inhibition, luminescence (assay: antitrypanosomal activity against T. brucei – luminescence (AID 1159562);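 note: parasites grew with compound for 24 h before the luminescence read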).

Row | Compound | IC50
1 | CC(=O)NC1(c2ccccc2)CCN(CC(=O)Nc2ccccc2-c2ccccc2)CC1 | 500 nM
2 | O=C(NCC1CCCCC1)c1cnns1 | 1300 nM
3 | Cc1ccc(Nc2nc(C3CCCN3Cc3ccn[nH]3)cs2)nc1 (stereo not given) | 4000 nM
4 | CC(=Cc1ccccc1)CN1CCC(=O)N(Cc2cccnc2)CC1 | > 40000 nM (inactive)
5 | Cc1[nH]nc(Nc2ccnc3[nH]ccc23)c1C | 250 nM
6 | Cc1nn(C2CCS(=O)(=O)C2)c(C)c1CN(C)C(=O)C=Cc1sc2ccccc2c1Cl (stereo not given) | 25000 nM
7 | CC1CN(Cc2ccc(C#N)cc2)CCN1c1ccc(NC(=O)c2ccccc2F)cc1 (stereo not given) | > 40000 nM (inactive)
8 | C=CCOCC1Cn2nc([N+](=O)[O-])nc2O1 (stereo not given) | > 40000 nM (inactive)
9 | O=C(NC1C(=O)N(c2ccccc2)C1c1cccnc1)c1ccc(Cl)s1 (stereo not given) | > 40000 nM (inactive)
10 | CC(=O)Nc1ccc(-c2csc(NC(=O)c3ccc([N+](=O)[O-])s3)n2)cc1 | 160 nM
11 | CNC(=O)C1Cc2ccccc2N1C(=O)Cc1ccc(F)cc1 (stereo not given) | 250 nM
12 | COc1cnc2ccc(=O)n(CCN3CCC(NC/C=C/c4cc(F)ccc4F)CC3)c2c1 | 790 nM
13 | CN(Cc1nc2ccc(C(=O)NCC3CCCCC3)cc2[nH]1)C1CCCc2cccnc21 (stereo not given) | 320 nM
14 | Cc1ccc(CNC2CCN(C[C@@H]3Cn4c(=O)ccc5ccc(=O)n3c54)CC2)cc1F | 2000 nM
15 | COc1ccc2ncc(Cl)c(CCN3CC[C@H](NCc4cc5c(cn4)OCS5)[C@@H](O)C3)c2n1 | 630 nM
16 | NC(=O)c1cc(F)ccc1Nc1nc(NC2CCC(O)CC2)ncc1Cl (stereo not given) | 630 nM
17 | NC(=O)c1cc(F)ccc1Nc1nc(NC2CCC(O)CC2)ncc1Br (stereo not given) | 320 nM
18 | Cc1cccc(Nc2nc(-c3ccccn3)cs2)n1 | 500 nM
19 | COc1cnc2ccc(=O)n(CCN3CCC(NC(=O)Cc4ccc(Cl)c(Cl)c4)CC3)c2c1 | 500 nM
20 | c1ccc2[nH]c(-c3ccc(N4CCCC4)nc3)nc2c1 | 1000 nM
21 | O=C(N[C@H](CO)c1ccccc1)c1ccc(-c2c[nH]c3nccc(C(F)(F)F)c23)s1 | 400 nM
22 | Cc1cc(NC(=O)C2CC2)ccc1OC1CCN(Cc2ccco2)CC1 | 250 nM
23 | Cc1cn[nH]c1C1CCCN(Cc2nc3ccccc3n2C)C1 (stereo not given) | 7900 nM
24 | CCOc1ccccc1C(=O)Nc1nnc(-c2ccc3c(c2)OCO3)s1 | > 40000 nM (inactive)
25 | CC(=O)Nc1ccc(-c2ccnc(Nc3cccc(C#N)c3)n2)cc1 | 790 nM
26 | CCC(=O)Nc1ccc(-c2nc3ccc(Cl)cc3[nH]2)cc1 | > 40000 nM (inactive)
27 | C[C@@H](Oc1cc(-n2cnc3ccc(CC(O)CO)cc32)sc1C(N)=O)c1ccccc1Cl (stereo not given in full) | 790 nM
28 | c1ccc(-c2nc(NC3CCCC3)c3ccccc3n2)nc1 | 6300 nM

Row | Compound | IC50
29 | CN(CCOc1ccc(Cl)cc1)Cc1nc(N)nc(N(C)C)n1 | 16000 nM
30 | CC(C)c1cc(C(=O)N2CCCC(c3cc4ncccc4[nH]3)C2)on1 (stereo not given) | > 40000 nM (inactive)
31 | COc1cc(OC)cc(C(=O)N[C@@H](CC(C)C)C(=O)NC2(C#N)CC2)c1 | 63 nM
32 | Cc1[nH]n2c(=O)c3c(nc2c1-c1ccc(F)cc1)CCCC3 | 630 nM
33 | Cc1c(C(C)NC(=O)Nc2cccc(Cl)c2)sc2ncnn12 (stereo not given) | > 40000 nM (inactive)
34 | CCN(CC)c1ccc(S(=O)(=O)N(CC)CC)c2nonc12 | 25000 nM
35 | CN(C)CCN(C)Cc1ccc(F)cc1NS(=O)(=O)c1ccc(Cl)c(Cl)c1 | 5000 nM
36 | COCCn1c(-c2ccccc2)cnc1NCc1ccccc1OC | 16000 nM
37 | COc1ccc(CN2C(=O)C(O)(CC(=O)c3ccncc3)c3cc(Br)ccc32)cc1OC (stereo not given) | 630 nM
38 | c1ccc(CNc2cccc3ccncc23)cc1 | > 40000 nM (inactive)
39 | CC(c1cc(Cl)cc(Cl)c1)N(C)c1ncc2c(N)nc(N)nc2n1 (stereo not given) | 32000 nM
40 | COc1ccc(-c2nc3ncccc3o2)cc1NC(=O)c1cccs1 | 2500 nM
41 | Cc1ccccc1CNc1cc(C2CC2)nc(-c2nccn2C)n1 | 1600 nM
42 | O=C(NC1CCN(C2Cc3ccc(NS(=O)(=O)c4cc(F)cc(F)c4)cc3C2)CC1)C1CC1 (stereo not given) | 790 nM
43 | N#Cc1nc(C=Cc2ccccc2)oc1NCc1cccnc1 | 32000 nM
44 | CS(=O)(=O)c1ccc(CC(=O)Nc2nc(-c3ccc(Cl)s3)cs2)cc1 | > 40000 nM (inactive)
45 | Cc1cc(C#N)c([N+](=O)[O-])cc1Br | 4000 nM
46 | CC(C)n1c(-c2nonc2N)nc2cccc(OCCN3CCCC3)c21 | 790 nM
47 | O=S(=O)(NCC(c1cccnc1)N1CCN(c2ccccc2F)CC1)c1ccc(F)cc1 (stereo not given) | > 40000 nM (inactive)
48 | O=C(NCCc1ccccc1Cl)c1cccn1-c1cccnc1 | > 40000 nM (inactive)
49 | Cc1[nH]nc2c1C(c1ccc(OCc3ccccc3F)cc1)SCC(=O)N2 (stereo not given) | > 40000 nM (inactive)
50 | CNc1cc(C)nc(C2CN(C(=O)c3n[nH]c4ccccc34)CCO2)c1 (stereo not given) | > 40000 nM (inactive)
51 | O=C(c1cccc(Nc2ncc(-c3ccc4c(c3)OCO4)cn2)c1)N1CCSC1 | > 40000 nM (inactive)
52 | Oc1cccnc1-c1n[nH]c(Cc2ccccc2)n1 | 10000 nM
53 | O=C(Nc1ccc(C(F)(F)F)cc1)Nc1cccc([N+](=O)[O-])c1 | 2000 nM
54 | O=C1COC(c2ccccc2)(c2ccccc2)CN1C1CCN(Cc2ccc(-n3ccnc3)cc2)CC1 | 1000 nM
55 | COc1ccc(S(=O)(=O)Nc2ccccc2OC)cc1NC(=O)CCCc1c[nH]c2ccccc12 | 32000 nM
